Data taken from US7745450B2, “Pyrazolo[4,3-d]pyrimidines, processes for their preparation and methods for therapy” (Institute of Experimental Botany, priority 2002, dated 2010).

Legend:
IκB-α kinase = IκB-α kinase inhibition, in vitro kinase assay; assay type: biochemical
cdk1/cyclin B (CDC2) = cdk1/cyclin B (CDC2) (Homo sapiens, UniProt P06493); test: CDK inhibition assay, cdk1/cyclin B (CDC2) kinase, histone phosphorylation; assay type: biochemical
Experimental: Selected compounds were tested for cdk1/cyclin B and cdk2/cyclin E inhibitory activity to determine the basic relationships between their interaction energy of docked complex and the inhibitory activity. Cdk2/cyclin E complex was produced in SIP insect cells co-infected with appropriate baculoviral construct. The cells were harvested 70 hours post infection in lysis buffer (50 mM Tris 7.4 pH, 150 mM NaCl, 5 mM EDTA, 20 mM NaF, 1% Tween 20, protease inhibitors) for 30 min on ice and the soluble fraction was recovered by centrifugation at 14.000 g for 10 min. The protein extract was stored at −80° C. until use. The final point test system for kinase activity measurement was used to carry out experiments on the kinetics under linear conditions. The assay mixture contained 1 mg/ml histone (Sigma Type III-S), 15 μM ATP, 0.2 μCi [γ-^32P] ATP and tested compound in a final volume of 20 μl, all in reaction buffer: 50 mM Hepes 7.4 pH, 10 mM MgCl2, 5 mM EGTA, 10 mM 2-glycerolphosphate, 1 mM NaF, 1 mM DTT and protease inhibitors. […] The measurement of kinase inhibition employed the digital imaging analyzer BAS 1800. The kinase activity was expressed as a percentage of maximum activity and the IC50 value was determined by graphic analysis. The kinase activity is expressed as a percentage of maximum activity, the apparent inhibition constants are determined by graphic analysis from dose-response curves presented on FIG. 1.

B16 = test: In vitro cytotoxic activity, Calcein AM; assay type: cell-based; conditions: Mus musculus, B16, 72 h, three days
[1] = test system: CEM (human lymphoblastoid leukemia); test: In vitro cytotoxic activity, Calcein AM; assay type: cell-based; conditions: Homo sapiens, 72 h, three days
Experimental: We have been using the following cell lines: HELA (human cervical carcinoma), MCF7 (human breast adenocarcinoma), NIH 3T3 (mouse fibroblasts), HOS (human osteogenic sarcoma), HL 60 (human promyelocytic leukemia), G 361 (human malignant melanoma), K562 (human erythroleukemia), CEM (human lymphoblastoid leukemia). Tested drugs were added to the cell cultures in six different concentration and kept at 37° C. and 5% CO2 for three days. All cell lines were grown in DMEM medium (Gibco BRL) supplemented with 10% (v/v) fetal bovine serum and L-glutamine and maintained at 37° C. in a humidified atmosphere with 5% CO2. 10^4 cells were seeded into each well of 96 well plate, allowed to stabilize for at least 2 h and then tested compounds were added at various concentrations ranging from 200 to 0.2 μM in triplicates. Three days after drug addition Calcein AM solution (Molecular Probes) was added and let to enter the cells for 1 hour. Fluorescence of viable cells was quantified employing Fluoroskan Ascent (Microsystems).

cdk1/cyclin B (CDC2), sequence (P06493 whole entry, species assumed): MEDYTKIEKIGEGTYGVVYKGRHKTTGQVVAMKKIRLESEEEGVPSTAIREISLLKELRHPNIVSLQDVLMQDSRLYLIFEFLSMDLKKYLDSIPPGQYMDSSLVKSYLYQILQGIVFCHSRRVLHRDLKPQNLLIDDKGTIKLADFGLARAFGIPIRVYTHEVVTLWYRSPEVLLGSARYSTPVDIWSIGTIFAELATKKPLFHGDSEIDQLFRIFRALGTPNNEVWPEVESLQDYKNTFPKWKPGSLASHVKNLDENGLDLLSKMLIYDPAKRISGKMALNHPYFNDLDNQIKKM
cdk1/cyclin B (CDC2), sequence (P14635 whole entry partner, species assumed): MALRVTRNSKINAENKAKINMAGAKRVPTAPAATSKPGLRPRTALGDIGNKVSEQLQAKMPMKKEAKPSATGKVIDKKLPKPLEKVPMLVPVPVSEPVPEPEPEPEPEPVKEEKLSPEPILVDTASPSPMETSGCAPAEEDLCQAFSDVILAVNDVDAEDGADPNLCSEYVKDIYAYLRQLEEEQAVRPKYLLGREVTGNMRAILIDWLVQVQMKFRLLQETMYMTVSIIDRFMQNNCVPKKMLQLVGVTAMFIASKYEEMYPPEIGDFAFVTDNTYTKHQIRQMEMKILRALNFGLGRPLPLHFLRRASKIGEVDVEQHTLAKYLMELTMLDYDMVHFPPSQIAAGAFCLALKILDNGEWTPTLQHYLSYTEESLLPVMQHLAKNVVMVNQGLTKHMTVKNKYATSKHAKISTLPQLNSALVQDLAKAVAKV

SMILES	IC50 (IκB-α kinase) [nM]	IC50 (cdk1/cyclin B (CDC2)) [nM]	GI50 (B16) [nM]	GI50 [1] [nM]
Cc1n[nH]c2c(Nc3ccc(Cl)c(N)c3)nc(NCCO)nc12	23	9		
Cc1n[nH]c2c(Nc3ccc(Cl)c(C(=O)O)c3)nc(NCCO)nc12	10	5		
Cc1n[nH]c2c(Nc3ccc(O)c(C(=O)O)c3)nc(NCCO)nc12	50	20		
Cc1n[nH]c2c(Nc3ccc(C(=O)O)c(Cl)c3)nc(NCCO)nc12	14	7		
Cc1n[nH]c2c(Nc3cc(N)cc(Cl)c3)nc(NCCO)nc12	20	10		
CC(C)c1n[nH]c2c(Nc3cccc(Cl)c3)nc(NCCO)nc12	280	110		
Cc1n[nH]c2c(Nc3cccc(Cl)c3)nc(NCCO)nc12	90	40		
Cc1n[nH]c2c(NCc3ccc(O)c(O)c3)nc(NCCO)nc12	11000	5000		
Cc1n[nH]c2c(Nc3ccc(Br)cc3)nc(NCCO)nc12	20	8		
Cc1n[nH]c2c(Nc3ccc(Cl)cc3)nc(NCCO)nc12	19	9		
CC(C)c1n[nH]c2c(Nc3cccc(Cl)c3)nc(NCCCO)nc12	200	80		
CC(C)c1n[nH]c2c(Nc3cccc(Cl)c3)nc(N(CCO)CCO)nc12	190	90		
CC(=O)c1ccccc1CNc1nc(N[C@@H](CO)C(C)C)nc2c(C(C)C)n[nH]c12	50	20		
CC(C)c1n[nH]c2c(NCc3c(N)cccc3Cl)nc(N[C@@H](CO)C(C)C)nc12			2500	1500
CC(C)c1n[nH]c2c(NCc3cccc(Cl)c3O)nc(N[C@@H](CO)C(C)C)nc12			1100	700
Cc1cccc(CNc2nc(N[C@@H](CO)C(C)C)nc3c(C(C)C)n[nH]c23)c1O			3500	1200
CC(C)c1n[nH]c2c(NCc3ccccc3O)nc(N[C@@H](CO)C(C)C)nc12 [listing 1 of 2 here]	1	0.5		
CC(C)c1n[nH]c2c(NCc3ccccc3O)nc(N[C@@H](CO)C(C)C)nc12 [listing 2 of 2 here]			9800	6700
CC(C)c1n[nH]c2c(NCc3ccc(Cl)c(O)c3O)nc(N[C@@H](CO)C(C)C)nc12 [listing 1 of 2 here]	1	0.2		
COc1ccc(CNc2nc(N[C@@H](CO)C(C)C)nc3c(C(C)C)n[nH]c23)c(O)c1O [listing 1 of 2 here]	1.2	0.4		
COc1ccc(CNc2nc(N[C@@H](CO)C(C)C)nc3c(C(C)C)n[nH]c23)c(O)c1O [listing 2 of 2 here]			2500	600
CC(C)c1n[nH]c2c(NCc3ccc(Cl)c(O)c3O)nc(N[C@@H](CO)C(C)C)nc12 [listing 2 of 2 here]			1400	900
COc1cc(O)c(CNc2nc(N[C@@H](CO)C(C)C)nc3c(C(C)C)n[nH]c23)cc1O [listing 1 of 2 here]	1.5	0.6		
CC(C)c1n[nH]c2c(NCc3cc(O)c(Cl)cc3O)nc(N[C@@H](CO)C(C)C)nc12 [listing 1 of 2 here]			2700	1300
CC(C)c1n[nH]c2c(NCc3cc(O)c(Cl)cc3O)nc(N[C@@H](CO)C(C)C)nc12 [listing 2 of 2 here]	1	0.8		
COc1cc(O)c(CNc2nc(N[C@@H](CO)C(C)C)nc3c(C(C)C)n[nH]c23)cc1O [listing 2 of 2 here]			2500	1700
CC(C)c1n[nH]c2c(NCc3c(O)cc(Cl)cc3O)nc(N[C@@H](CO)C(C)C)nc12 [listing 1 of 2 here]	2	1		

SMILES	IC50 (IκB-α kinase) [nM]	IC50 (cdk1/cyclin B (CDC2)) [nM]	GI50 (B16) [nM]	GI50 [1] [nM]
COc1cc(O)c(CNc2nc(N[C@@H](CO)C(C)C)nc3c(C(C)C)n[nH]c23)c(O)c1	1.6	0.7		
CC(C)c1n[nH]c2c(NCc3c(O)cc(Cl)cc3O)nc(N[C@@H](CO)C(C)C)nc12 [listing 2 of 2 here]			1200	400
CC(=O)Oc1cccc(CNc2nc(N[C@@H](CO)C(C)C)nc3c(C(C)C)n[nH]c23)c1			14600	12500
CC(=O)c1cccc(CNc2nc(N[C@@H](CO)C(C)C)nc3c(C(C)C)n[nH]c23)c1	5	1		
CC(C)c1n[nH]c2c(Nc3ccc(Cl)c(N)c3)nc(N[C@@H](CO)C(C)C)nc12			4400	2900
CC(C)c1n[nH]c2c(NCc3ccc(Cl)c(N)c3)nc(N[C@@H](CO)C(C)C)nc12			4400	2600
CC(C)c1n[nH]c2c(Nc3ccc(Cl)c(C(=O)O)c3)nc(N[C@@H](CO)C(C)C)nc12			9100	5800
CC(C)c1n[nH]c2c(Nc3ccc(O)c(C(=O)O)c3)nc(N[C@@H](CO)C(C)C)nc12			4200	2700
CC(C)c1n[nH]c2c(Nc3ccc(C(=O)O)c(Cl)c3)nc(N[C@@H](CO)C(C)C)nc12			12400	7600
CC(C)c1n[nH]c2c(Nc3ccc(N)c(Cl)c3)nc(N[C@@H](CO)C(C)C)nc12			4800	2500
CC(C)c1n[nH]c2c(NCc3cccc(O)c3)nc(N[C@@H](CO)C(C)C)nc12 [listing 1 of 2 here]	4	2		
CC(C)c1n[nH]c2c(NCc3cccc(O)c3)nc(N[C@@H](CO)C(C)C)nc12 [listing 2 of 2 here]			8500	4900
CC(C)c1n[nH]c2c(NCc3ccc(O)c(O)c3)nc(N[C@@H](CO)C(C)C)nc12	310	150		
CC(C)c1n[nH]c2c(Nc3ccc(Br)cc3)nc(N[C@@H](CO)C(C)C)nc12			11400	5800
CC(C)c1n[nH]c2c(Nc3ccc(Cl)cc3)nc(N[C@@H](CO)C(C)C)nc12			5700	4100
CC(C)c1n[nH]c2c(N(C)CCc3ccc(O)c(O)c3)nc(N[C@@H](CO)C(C)C)nc12	150	90		
CC(C)c1n[nH]c2c(N(C)Cc3ccc(O)c(O)c3)nc(N[C@@H](CO)C(C)C)nc12	110	30		
CC(C)c1n[nH]c2c(Nc3ccccc3)nc(N[C@@H](CO)C(C)C)nc12			3600	2500
CC[C@H](CO)Nc1nc(NCc2c(O)cc(OC)cc2O)c2[nH]nc(C(C)C)c2n1			3400	1800
CC[C@H](CO)Nc1nc(Nc2ccc(Cl)c(C(=O)O)c2)c2[nH]nc(C(C)C)c2n1			5200	4500
CC[C@H](CO)Nc1nc(Nc2ccc(N)c(Cl)c2)c2[nH]nc(C(C)C)c2n1			19600	12200
CC[C@H](CO)Nc1nc(Nc2ccc(C(=O)O)c(Cl)c2)c2[nH]nc(C(C)C)c2n1			11200	7900
CC[C@H](CO)Nc1nc(Nc2ccc(Br)cc2)c2[nH]nc(C(C)C)c2n1			9800	6500
CC[C@H](CO)Nc1nc(Nc2ccc(Cl)cc2)c2[nH]nc(C(C)C)c2n1			9500	6700
CC[C@H](CO)Nc1nc(N(C)CCc2ccc(O)c(O)c2)c2[nH]nc(C(C)C)c2n1	1500	720		
CC[C@H](CO)Nc1nc(N(C)Cc2ccc(O)c(O)c2)c2[nH]nc(C(C)C)c2n1	510	230		
Cc1n[nH]c2c(NC(CO)c3ccccc3)nc(NCCO)nc12 (racemic)			9400	8900
